According to the OligoGym collection:
“And” between values parts separate entries of the source, which are not always exact repeats. Equal entries are not always repeated. After the bases stand the sugars from the 5' end (letter, count) and the backbone: PS all phosphorothioate, else s phosphorothioate and o phosphodiester by linkage. Methylation of C is not given here. e = 2'-O-(2-methoxyethyl) (MOE); k = constrained ethyl (cEt); d = 2'-deoxy (DNA)

Biological target: IRF4
Conditions: ASO

Sequence | target mRNA inhibition (MM.1R, 1 µM) | target mRNA inhibition (SK-MEL-28, 4 µM) | also measured
ACCATATTGGAAACCA (sugars k3 d10 k3, PS) | 3% | 74% | target mRNA inhibition (MM.1R, 0.0625 µM): -12%; target mRNA inhibition (MM.1R, 0.074 µM): -11%; target mRNA inhibition (MM.1R, 0.222 µM): -18%; target mRNA inhibition (MM.1R, 0.25 µM): -6%; target mRNA inhibition (MM.1R, 0.666 µM): -1%; target mRNA inhibition (MM.1R, 2 µM): 13%; target mRNA inhibition (MM.1R, 4 µM): 34%
ACCATGTTCCTGAAGA (sugars k3 d10 k3, PS) | – | 44% | –
ACCATTACTTAGACAT (sugars k3 d10 k3, PS) | – | 65% | –
ACCATTCAGACAGATG (sugars k3 d10 k3, PS) | – | 30% | –
ACCCAAATGTGGAGCT (sugars k3 d10 k3, PS) | 3% | – | –
ACCCAATAGTCTAGCT (sugars k3 d10 k3, PS) | – | 25% | –
ACCCACCCAGTGTCTG (sugars k3 d10 k3, PS) | – | 18% | –
ACCCACGAAGATTCAA (sugars k3 d10 k3, PS) | -17% | – | –
ACCCAGTGGTAGGTAG (sugars k3 d10 k3, PS) | – | 30% | –
ACCCATTTAATCTGTC (sugars k3 d10 k3, PS) | – | 57% | –
ACCCTCCCCAACTTAA (sugars k3 d10 k3, PS) | – | 10% | –
ACCGACTCTTTTTTTA (sugars k3 d10 k3, PS) | -2% | – | –
ACCTAATCTACAACAA (sugars k3 d10 k3, PS) | – | 17% | –
ACCTCAGTTTGTGAAG (sugars k2 d9 e3 k2, PS) | 4% | – | –
ACCTCAGTTTGTGAAG (sugars kkddddddddddkeke, PS) | -12% | – | –
ACCTCAGTTTGTGAAG (sugars kkdddddddddekeke, PS) | 13% | – | –
ACCTCAGTTTGTGAAG (sugars kkdddddddddkdkdk, PS) | -3% | – | –
ACCTGCATCGAGATCA (sugars k3 d10 k3, PS) | – | 53% | –
ACCTGGCAACCATTTT (sugars k4 d8 k4, PS) | – | 19% | –
ACCTTAACCAATCCCA (sugars k3 d10 k3, PS) | – | 71% | –
ACCTTATGCTTGGCTC (sugars k3 d10 k3, PS) | – | 31% | –
ACCTTTTTTGGCTCCC (sugars k3 d10 k3, PS) | – | 21% | –
ACGACTTAAGCTAAAC (sugars k3 d10 k3, PS) | – | 58% | –
ACGATGATAGCTCACC (sugars k3 d10 k3, PS) | – | 8% | –
ACGCAAGGCTCGGAGC (sugars k3 d10 k3, PS) | – | 21% | –
ACGCACCCGCAGCCCA (sugars k3 d10 k3, PS) | -10% | – | –

Sequence | target mRNA inhibition (MM.1R, 1 µM) | target mRNA inhibition (SK-MEL-28, 4 µM) | also measured
ACGCAGCCTCTAAGAA (sugars k3 d10 k3, PS) | – | 25% | –
ACGCCTTAATGTTCAG (sugars k3 d10 k3, PS) | – | 77% | –
ACGGAAGTTTACACTG (sugars k3 d10 k3, PS) | – | 77% | –
ACGGAAGTTTACACTG (sugars kkddddddddddkeke, PS) | 13% | – | –
ACGGAAGTTTACACTG (sugars kkdddddddddekeke, PS) | 8% | – | –
ACGGAAGTTTACACTG (sugars kkdddddddddkdkdk, PS) | -2% | – | –
ACGGAAGTTTACACTG (sugars kkkdddddddddkeke, PS) | 13% | – | –
ACGGACGGAGGCGGCA (sugars k3 d10 k3, PS) | – | 11% | –
ACGTGTGCTTGCCAAG (sugars kkddddddddddkeke, PS) | 6% and 26% | – | –
ACTAAGGACAGCTGTG (sugars k3 d10 k3, PS) | – | 15% | –
ACTCACTAAAGACTAT (sugars k3 d10 k3, PS) | – | 18% | –
ACTCATAGGTGTACAC (sugars k3 d10 k3, PS) | – | 45% | –
ACTCATGGAGGATCAT (sugars k3 d10 k3, PS) | – | 19% | –
ACTGAGTGTGCAGTTC (sugars k3 d10 k3, PS) | – | 36% | –
ACTGCTTGAGGTTTTC (sugars e1 k2 d9 k2 e2, PS) | 46% | – | –
ACTGCTTGAGGTTTTC (sugars k2 d9 e3 k2, PS) | 45% | – | –
ACTGCTTGAGGTTTTC (sugars k3 d9 k3 e1, PS) | 52% | – | –
ACTGCTTGAGGTTTTC (sugars kkkddddddddkekek, PS) | 32% | – | –
ACTGTTACCGATGCTT (sugars kddddddddddkekek, PS) | 20% | – | –
ACTGTTACCGATGCTT (sugars kkdddddddddekeke, PS) | 23% and 37% | – | –
ACTGTTACCGATGCTT (sugars kkdddddddddkdkdk, PS) | 22% and 31% | – | –
ACTTAGACATTACTAG (sugars k3 d10 k3, PS) | – | 20% | –
ACTTATTTGTGGCTCA (sugars k3 d10 k3, PS) | 36% | – | –
ACTTGCATCCATGTCA (sugars k3 d10 k3, PS) | 35% | – | –
ACTTGCTAAGTCTTAT (sugars k3 d10 k3, PS) | 13% | – | –
ACTTTTAGAGAGGAGA (sugars e1 k2 d9 k2 e2, PS) | 28% | – | –

Sequence | target mRNA inhibition (MM.1R, 1 µM) | target mRNA inhibition (SK-MEL-28, 4 µM) | also measured
ACTTTTAGAGAGGAGA (sugars k3 d9 k3 e1, PS) | 36% | – | –
ACTTTTAGAGAGGAGA (sugars k3 d10 k3, PS) | – | 64% | –
ACTTTTAGAGAGGAGA (sugars kdddddddddkekeke, PS) | 17% | – | –
ACTTTTAGAGAGGAGA (sugars kkddddddddddkeke, PS) | 23% | – | –
ACTTTTAGAGAGGAGA (sugars kkdddddddddekeke, PS) | 52% | – | –
ACTTTTAGAGAGGAGA (sugars kkdddddddddkekek, PS) | 40% | – | –
AGAAACAGAGACGCGG (sugars k3 d10 k3, PS) | 11% | – | –
AGAACATTACGAGAGG (sugars k3 d10 k3, PS) | 41% and 51% | – | target mRNA inhibition (MM.1R, 0.0625 µM): 2% and 12%; target mRNA inhibition (MM.1R, 0.25 µM): 16% and 20%; target mRNA inhibition (MM.1R, 4 µM): 65% and 66%
AGAACTTGCTAAGTCT (sugars k3 d10 k3, PS) | -34% | – | –
AGACAAATCTTCTGCC (sugars k3 d10 k3, PS) | – | -4% | –
AGACAGGTCTCTACCT (sugars k3 d10 k3, PS) | -12% | – | –
AGACATACCTACAAGC (sugars k3 d10 k3, PS) | – | 50% | –
AGACCAGGATTCGCCA (sugars k3 d10 k3, PS) | – | 33% | –
AGAGACGCGGTGAGAG (sugars k3 d10 k3, PS) | -20% | – | –
AGAGAGTCCGACGCAC (sugars k3 d10 k3, PS) | -18% | – | –
AGAGGCGACTGCTGAA (sugars k3 d10 k3, PS) | -19% | – | –
AGAGGTGCCTTCTTTA (sugars k3 d10 k3, PS) | 18% | – | –
AGAGTGGGTGTTGGCC (sugars k3 d10 k3, PS) | – | 25% | –
AGAGTGGTACACCTCT (sugars k3 d10 k3, PS) | – | 22% | –
AGATACAAAACGGACT (sugars k3 d10 k3, PS) | -15% | – | –
AGATATCCTGCAACTG (sugars k3 d10 k3, PS) | – | -9% | –
AGCAAACCCTGCACTC (sugars k3 d10 k3, PS) | – | 8% | –
AGCAAAGCAAGTGTCT (sugars k3 d10 k3, PS) | – | 58% | –
AGCAACTAGCAGGGCA (sugars k3 d10 k3, PS) | -2% | – | –
AGCAAGTGGAGGTCTT (sugars k3 d10 k3, PS) | – | 63% | –
AGCAAGTGTCTTCCAC (sugars k3 d10 k3, PS) | – | 75% and 72% | –

Sequence | target mRNA inhibition (MM.1R, 1 µM) | target mRNA inhibition (SK-MEL-28, 4 µM) | also measured
AGCACCGTGTGGAAAG (sugars k3 d10 k3, PS) | – | 57% | –
AGCACTGGCATCGAGA (sugars k3 d10 k3, PS) | – | 59% | –
AGCACTGGCATTGAGA (sugars k3 d10 k3, PS) | – | 74% | target mRNA inhibition (MM.1R, 0.074 µM): 4%; target mRNA inhibition (MM.1R, 0.222 µM): 0%; target mRNA inhibition (MM.1R, 0.666 µM): 10%; target mRNA inhibition (MM.1R, 2 µM): 24%; target mRNA inhibition (SK-MEL-28, 0.185 µM): -4% and 10% and -11%; target mRNA inhibition (SK-MEL-28, 15 µM): 86% and 83% and 98%
AGCAGTGATGTCAGGT (sugars k2 d9 e3 k2, PS) | 69% and 56% | – | –
AGCAGTGATGTCAGGT (sugars kkdddddddddekeke, PS) | 72% and 70% and 69% | – | target mRNA inhibition (MM.1R, 0.0625 µM): 32%; target mRNA inhibition (MM.1R, 0.25 µM): 54%; target mRNA inhibition (MM.1R, 4 µM): 86%
AGCATTTTATCATCCG (sugars k3 d10 k3, PS) | – | 81% | –
AGCATTTTATCATCCG (sugars kddddddddddkekek, PS) | 36% | – | –
AGCATTTTATCATCCG (sugars kkdddddddddekeke, PS) | 46% | – | –
AGCATTTTATCATCCG (sugars kkkddddddddkekek, PS) | 22% | – | –
AGCCAAAGTGACTTAA (sugars k3 d10 k3, PS) | – | 58% | –
AGCCAACTTATAGCAC (sugars k3 d10 k3, PS) | – | 54% | –
AGCCAAGAGGTGCGAG (sugars k3 d10 k3, PS) | – | 38% | –
AGCCAAGGAGGCGGGC (sugars k3 d10 k3, PS) | – | -1% | –
AGCCACGAGGCACCGC (sugars k3 d10 k3, PS) | – | 12% | –
AGCCATAGCAAATGGC (sugars k3 d10 k3, PS) | – | 5% | –
AGCCCTTGCTGCAAAT (sugars k3 d10 k3, PS) | -11% | – | –
AGCGACCCAAATGTGG (sugars k3 d10 k3, PS) | -2% | – | –
AGCTAGCGCGCACTAA (sugars k3 d10 k3, PS) | -8% | – | –
AGCTAGTTCATTCCCT (sugars k3 d10 k3, PS) | – | 48% | –
AGCTCAATAATCTCCC (sugars k3 d10 k3, PS) | 6% | – | –
AGCTGAATGCTCTCCA (sugars k3 d10 k3, PS) | – | 78% | –
AGCTGTATTTATGCCC (sugars k3 d10 k3, PS) | – | 58% | –
AGCTTACTGTGATTCT (sugars k3 d10 k3, PS) | 13% | – | –
